{"source": "paper PMC10021052", "about": "“Novel multivalent S100A8 inhibitory peptides attenuate tumor progression and metastasis by inhibiting the TLR4-dependent pathway” (Cancer Gene Therapy, 2023)", "key": {"CD8+ cells": {"system": "CD8+ cells", "settings": "LLC-tumor-bearing mice; ref [8]; cited from earlier work"}, "[1]": {"system": "S100A8-mediated cell migration", "settings": "ref [8]; cited from earlier work", "description": "VEGF is another NFκB-mediated re ..."}, "SW480 cells [2]": {"system": "SW480 cells", "test": "S100A8-mediated cell migration of SW480 cells", "assay_type": "cell-based, human", "settings": "Supplementary Fig. 1B"}, "SW480 cells [3]": {"system": "SW480 cells", "test": "ELISA, IL-8 and VEGF secretion of SW480 cells", "assay_type": "cell-based, human", "settings": "peptide pretreatment, S100A8 24 h, supernatant ELISA, *P < 0.05 vs S100A8", "description": "(§1) S100A8 recombinant protein was purified as previously described. These proteins were immobilized on Maxisorp plates (Thermo Fisher Scientific, Waltham, MA, USA), followed by blocking with protein-free blocking buffer (Thermo Fisher Scientific). TLR4/MD-2 recombinant proteins with various concentrations of candidate peptides were then added to the indicated S100A8-immobilized ELISA plates for 2 h. The plates were washed, incubated with anti-TLR4 antibody, and HRP-conjugated secondary antibody, followed by the addition of substrate. The reaction was stopped by addition a 2N H2SO4 solution. Absorbance OD450/OD650 was measured using a microplate reader (Thermo Fisher Scientific). Maxisorp plates were also used for peptide coating. After blocking with protein-free blocking buffer, the coated plates were washed, and TLR4/MD-2 recombinant protein (2 µg/ml) was added to each well. The plates were incubated with a TLR4 antibody followed by horseradish peroxidase (HRP)-labeled anti-rabbit IgG. For detection of IL8 and VEGF in culture supernatants, SW480 cells were pretreated with the indicated peptides, and followed by stimulation with S100A8 for 24 h. The amount of interleukin-8 (IL-8) or VEGF in the supernatants were analyzed by ELISA kits (R&D Systems, Mineapolis, MN) according to the manufacturer’s instructions."}, "human TLR4/MD-2 complex": {"system": "human TLR4/MD-2 complex", "test": "ELISA, TLR4/MD-2 binding to immobilized S100A8-derived peptides (overlapping peptides, alanine scan)", "settings": "ELISA, peptide immobilized, TLR4/MD-2 2 µg/ml", "description": "as §1\n(§2) Fig. 2 Identification of S100A8 binding sites to human TLR4/MD-2. […] TLR4/MD-2 recombinant proteins were immobilized to the ELISA plate. After blocking, a full length or deletion mutant of S100A8 was added to the plate. The more detailed methods are described in Materials and Methods. […] B A series of overlapping S100A8 synthetic peptides. The TLR4/MD-2 recombinant proteins were added to each well of peptide immobilized plates. The affinity to TLR4/MD-2 was determined. Data are shown as mean ± SD. C The competitive activity was determined using ELISA. Data are shown as mean ± SD. D The TLR4/MD-2 was mixed with S100A8 with/without the indicated peptides, and immunoprecipitated using an anti-TLR4 antibody. TLR4 or S100A8 was visualized. Similar results were obtained in three independent experiments. […] Total RNAs from SW480 cells with/without treatment of the peptide candidates were extracted and qPCR analysis was performed using relevant primer sets and SYBR green. Relative expression levels were compared. […] TEXT PRINTED IN THE PICTURE: (A) Full length: TLR4/MD-2 binding: + | (A) S100A8-ΔC: TLR4/MD-2 binding: − | (A) S100A8-N: TLR4/MD-2 binding: −\nFig. 3 Identification of high affinity peptides to TLR4/MD-2 using alanine scanning based on the peptide #3 amino acid sequences. A Lists of peptides used for alanine scanning. […] Similar results were obtained in three independent experiments."}, "S100A8-TLR4/MD-2 complex": {"system": "S100A8-TLR4/MD-2 complex", "test": "Competitive inhibition of S100A8-TLR4/MD-2 binding (ELISA, S100A8 immobilized; also immunoprecipitation)", "design": "species or system human", "settings": "ELISA (Fig. 2C), immunoprecipitation with anti-TLR4 antibody (Fig. 2D)", "description": "as §1, §2\n(§3) Fig. 4 Improvement of competitive inhibition activity by divalent peptide3A5. A The binding capacity was measured at the indicated concentration using an ELISA-based assay. Similar results were obtained in three independent experiments. B SW480 cells were pretreated with 2.5 µM of divalent peptide3A5, and then stimulated with human S100A8 recombinant protein. After 30 min, cell lysates were subjected to western blotting using the indicated antibody. The divalent peptide#3 or peptide3A5 reduced the expression of S100A8-mediated IL-8 (C) and VEGF (D) induction. Total RNAs from SW480 cells with/without treatment of the peptide candidates were extracted and qPCR analysis was performed using relevant primer sets and SYBR green. Relative expression levels were compared. Peptide #3 suppresses S100A8-mediated IL-8(E) and VEGF (F) secretion in SW480 cells."}, "SW480 cells [4]": {"system": "SW480 cells", "test": "qPCR, S100A8-mediated IL-8 and VEGF mRNA induction in SW480 cells", "assay_type": "cell-based, human", "description": "SW480 cells were treated with S100A8 in Dulbecco’s Modified Eagle Medium/HamF12 supplemented with 0.1% bovine serum albumin for cytokine induction. Total RNA was extracted using the RNeasy Mini Plus (Qiagen, Hilden, Germany). Complementary DNA was synthesized using the PrimeScript 1st Strand Synthesis kit (Takara Bio, Japan). Quantitative PCR (qPCR) analysis was performed using the PowerUp^TM SYBR^TM Green mixture (Thermo Fisher Scientific) and the StepOnePlus Real Time PCR System (Thermo Fisher Scientific). Gene expression levels were calculated from Ct values, and the relationship between the Ct value and the logarithm of the copy number of a target gene was confirmed to be on a linear line using the corresponding isolated DNA and its serial dilutions as a standard. Thus, the gene expression levels of IL-8 and VEGF were normalized against that of β-actin in each sample. The following primers were used; β-actin, 5′-[…]-3′ and 5′-[…]-3′; IL-8, 5′-[…]-3′ and 5′-[…]-3′; VEGF, 5′-[…]-3′ and 5′-[…]-3′.\nas §2, §3"}, "[5]": {"system": "tumor cells and macrophages", "test": "Cytokine/chemokine induction in tumor cells and macrophages", "assay_type": "cell-based", "settings": "possible mechanism scheme, Fig. 7I"}, "TLR4/MD-2 complex": {"molecular_target": "T1, TLR4/MD-2 complex (Homo sapiens, UniProt O00206+Q9Y6Y9)", "T1 construct": "TLR4/MD-2 recombinant protein (2 µg/ml) was added to each well", "T1 sequence (O00206 24-631 limits assumed)": "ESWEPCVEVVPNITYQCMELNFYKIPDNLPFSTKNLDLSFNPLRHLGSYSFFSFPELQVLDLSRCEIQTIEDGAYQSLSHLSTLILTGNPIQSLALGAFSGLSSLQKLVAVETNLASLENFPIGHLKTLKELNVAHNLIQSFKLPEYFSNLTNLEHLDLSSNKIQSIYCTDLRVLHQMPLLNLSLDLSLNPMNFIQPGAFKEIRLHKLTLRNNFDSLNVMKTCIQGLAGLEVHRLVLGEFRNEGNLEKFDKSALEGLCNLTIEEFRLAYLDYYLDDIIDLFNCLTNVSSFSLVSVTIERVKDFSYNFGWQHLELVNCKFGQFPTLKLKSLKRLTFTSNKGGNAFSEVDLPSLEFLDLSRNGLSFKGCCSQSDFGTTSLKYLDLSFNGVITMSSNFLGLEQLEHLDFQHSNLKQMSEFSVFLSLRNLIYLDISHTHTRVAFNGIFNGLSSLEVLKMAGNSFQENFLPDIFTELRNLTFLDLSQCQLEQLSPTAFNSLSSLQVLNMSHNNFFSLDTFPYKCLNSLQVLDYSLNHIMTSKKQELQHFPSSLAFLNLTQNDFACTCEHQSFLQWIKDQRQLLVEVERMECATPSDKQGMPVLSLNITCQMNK", "T1 sequence (Q9Y6Y9 17-160 partner limits assumed)": "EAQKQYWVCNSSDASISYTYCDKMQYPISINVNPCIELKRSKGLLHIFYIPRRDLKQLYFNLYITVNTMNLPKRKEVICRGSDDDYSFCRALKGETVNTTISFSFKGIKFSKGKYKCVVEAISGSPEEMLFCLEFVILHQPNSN", "test": "TLR4/MD-2 binding to immobilized tetravalent ILVIK (ELISA)", "settings": "various TLR4/MD-2 concentrations, one representative of three experiments (Fig. 7F)", "description": "as §1, with “For detection of IL8 and VEGF in culture supernatants, SW480 cells were pretreated with the indicated peptides, and followed by stimulation with S100A8 for 24 h.” left out\nFig. 7 Isolation of multivalent S100A8 inhibitory peptides using divalent peptide libraries based on the sequences of peptide3A5. […] The binding affinities to TLR4/MD-2 complex were determined using an ELISA-based assay. […]"}, "[6]": {"system": "SW480-transplanted xenograft", "test": "Tumor growth in SW480-transplanted xenograft model", "assay_type": "in vivo, Balb nu/nu mice", "settings": "SW480 xenograft, various concentrations every 3 days, *P < 0.05 vs control"}, "TLR4": {"system": "TLR4", "settings": "ref [33], [34]; cited from earlier work", "description": "The difference between TAK-242 and our inhibitory peptides is the target molecules. […] Qin et al. previously generated two peptibodies, peptide-Fc fusion proteins, targeting mouse MDSCs using a competitive peptide phage display platform. Peptibodies recognize the cell surface of mouse MDSCs. Although peptibodies also recognize S100A9, mouse MDSCs ar ..."}}, "note": "Positions of bridges follow the written chain, without caps; N, C: chain ends. Non-standard residues stand in square brackets, D forms with d. Residues, ends and D or L forms follow the SMILES beside them. Chains are numbered I, II in the order given. ξ: configuration not given here. ξK = NCCCCC(N)C(=O)O; Ahx = NCCCCCC(=O)O", "data": [{"compound": "CCCCCC/C=C\\CCCCCCCCCC(=O)N[C@H]1[C@H](OC[C@H]2O[C@H](OP(=O)(O)O)[C@H](NC(=O)CC(=O)CCCCCCCCCCC)[C@@H](OCCCCCCCCCC)[C@@H]2O)O[C@H](COC)[C@@H](OP(=O)(O)O)[C@@H]1OCC[C@@H](CCCCCCC)OC", "note": "[Eritoran, reference compound]", "values": [{"measurement": "intratumoral infiltration of CD8+ cells, Eritoran", "setting": "CD8+ cells", "result": "increased intratumoral infiltration of CD8^+ cells"}, {"measurement": "S100A8-mediated cell migration, Eritoran", "setting": "[1]", "result": "inhibited S100A8-mediated cell migration"}]}, {"compound": "FQEFLILVIK [Peptide #3, S100A8-derived peptide […] from the carboxyl terminal region]", "values": [{"measurement": "S100A8-mediated cell migration", "setting": "SW480 cells [2]", "result": "significantly inhibited"}, {"measurement": "S100A8-mediated IL-8 secretion", "setting": "SW480 cells [3]", "result": "suppresses S100A8-mediated IL-8 secretion"}, {"measurement": "S100A8-mediated VEGF secretion", "setting": "SW480 cells [3]", "result": "suppresses"}, {"measurement": "S100A8-mediated IL-8 secretion", "setting": "SW480 cells [3]; listed as peptide#3", "result": "suppressed"}, {"measurement": "TLR4/MD-2 binding of peptide", "setting": "human TLR4/MD-2 complex", "result": "most strongly bound to the TLR4/MD-2 complex among a series of S100A8-derived peptides"}, {"measurement": "TLR4/MD-2 binding of peptide", "setting": "human TLR4/MD-2 complex; listed as peptide #3", "result": "could bind to TLR4/MD-2"}, {"measurement": "competition for S100A8-TLR4/MD-2 binding", "setting": "S100A8-TLR4/MD-2 complex", "result": "competed for binding between S100A8 and the TLR4/MD-2 complex"}, {"measurement": "IL-8 induction by peptide alone (agonism)", "setting": "SW480 cells [4]; no S100A8", "result": "failed to induce IL-8 production"}, {"measurement": "S100A8-mediated VEGF induction (mRNA)", "setting": "SW480 cells [4]; qPCR, normalized to β-actin", "result": "suppressed S100A8-induced VEGF induction"}, {"measurement": "S100A8-mediated IL-8 induction (mRNA)", "setting": "SW480 cells [4]; qPCR, normalized to β-actin, *P < 0.05 vs S100A8", "result": "reduces the expression of S100A8-mediated IL-8 induction"}]}, {"compound": "CC[C@H](C)[C@H](NC(C)=O)C(=O)N[C@@H](CC(C)C)C(=O)N[C@H](C(=O)N[C@H](C(=O)N[C@@H](CCCCN)C(=O)NCCCCCC(=O)NCCCCC(NC(=O)CCCCCNC(=O)[C@H](CCCCN)NC(=O)[C@@H](NC(=O)[C@@H](NC(=O)[C@H](CC(C)C)NC(=O)[C@@H](NC(C)=O)[C@@H](C)CC)C(C)C)[C@@H](C)CC)C(=O)NCCCCC(NC(=O)C(CCCCNC(=O)CCCCCNC(=O)[C@H](CCCCN)NC(=O)[C@@H](NC(=O)[C@@H](NC(=O)[C@H](CC(C)C)NC(=O)[C@@H](NC(C)=O)[C@@H](C)CC)C(C)C)[C@@H](C)CC)NC(=O)CCCCCNC(=O)[C@H](CCCCN)NC(=O)[C@@H](NC(=O)[C@@H](NC(=O)[C@H](CC(C)C)NC(=O)[C@@H](NC(C)=O)[C@@H](C)CC)C(C)C)[C@@H](C)CC)C(N)=O)[C@@H](C)CC)C(C)C", "note": "(some centres unmarked) [Tetravalent ILVIK] (I: Ac-ILVIK[Ahx][ξK][ξK]-NH2 / II: Ac-ILVIK[Ahx][ξK] / III: Ac-ILVIK[Ahx] / IV: Ac-ILVIK[Ahx]; amide I:7-IV:C, I:8-II:C, II:7-III:C)", "values": [{"measurement": "induction of cytokines/chemokines", "setting": "[5]", "result": "suppress the induction of cytokines/chemokines in both tumor cells and macrophages"}, {"measurement": "Kd", "setting": "TLR4/MD-2 complex", "result": "4.58 to 8.78", "unit": "nM"}, {"measurement": "tumor growth, multivalent ILVIK", "setting": "[6]", "result": "inhibits tumor growth"}, {"measurement": "tumor growth, multivalent ILVIK", "setting": "[6]; listed as tetravalent ILVIK", "result": "more effectively inhibited tumor progression"}]}, {"compound": "CCOC(=O)C1=CCCC[C@H]1S(=O)(=O)Nc1ccc(F)cc1Cl", "note": "[TAK-242, ethyl (6R)-6-[N-(2-Chloro-4-fluorophenyl)sulfamoyl]cyclohex-1-ene-1-carboxylate]", "values": [{"measurement": "TLR4 inhibition, site", "setting": "TLR4", "result": "inhibits TLR4 at intracellular domains"}]}]}
